Reference: the NIST ThermoML archive (doi:10.1016/j.fluid.2018.10.006)

Settings: 525.42 K, Fluid (supercritical or subcritical phases), Coaxial cylinder method

CCCCCC [hexane]
Settings | thermal conductivity [W/m/K]
2500 kPa | 0.04372
2740 kPa | 0.04444
2850 kPa | 0.04444
3000 kPa | 0.04701
3050 kPa | 0.04756
3100 kPa | 0.04855
3150 kPa | 0.04855
3200 kPa | 0.04958
3250 kPa | 0.05034
3300 kPa | 0.05065
3350 kPa | 0.05177
3400 kPa | 0.05311
3450 kPa | 0.0538
3500 kPa | 0.05526
3550 kPa | 0.05659
3600 kPa | 0.05777
3650 kPa | 0.059
3700 kPa | 0.0603
3750 kPa | 0.06164
3800 kPa | 0.06281
3850 kPa | 0.06378
3900 kPa | 0.06477
4000 kPa | 0.06632
4100 kPa | 0.06685
4200 kPa | 0.06685
4300 kPa | 0.06685
4400 kPa | 0.06684
4500 kPa | 0.06684
4600 kPa | 0.06684
4700 kPa | 0.06683
4800 kPa | 0.06683
4900 kPa | 0.06848
5000 kPa | 0.06848
5100 kPa | 0.06848
5200 kPa | 0.06848
5300 kPa | 0.07141
5400 kPa | 0.07172
5500 kPa | 0.07172
5600 kPa | 0.07172
5700 kPa | 0.07203
5800 kPa | 0.07203
5900 kPa | 0.07218
6000 kPa | 0.07233
6100 kPa | 0.07249
6200 kPa | 0.07249
6300 kPa | 0.07265
6400 kPa | 0.07281
6500 kPa | 0.0728
6600 kPa | 0.07296
6700 kPa | 0.07312
6800 kPa | 0.07328
6900 kPa | 0.07348
7000 kPa | 0.07361
7100 kPa | 0.07377
7200 kPa | 0.07393
7317 kPa | 0.0741
7328 kPa | 0.07412
7405 kPa | 0.07412
7500 kPa | 0.07428
7600 kPa | 0.07445
7700 kPa | 0.07462
7800 kPa | 0.07478
7900 kPa | 0.07482
8000 kPa | 0.07495
8100 kPa | 0.07512
8200 kPa | 0.07529
8300 kPa | 0.07546
8400 kPa | 0.07546
8500 kPa | 0.07546
8600 kPa | 0.07563
8700 kPa | 0.07583
8800 kPa | 0.07597
8900 kPa | 0.07614
9000 kPa | 0.07632
9100 kPa | 0.07632
9200 kPa | 0.07649
9300 kPa | 0.07667
9400 kPa | 0.07674
9500 kPa | 0.07684
9600 kPa | 0.07701
9700 kPa | 0.07712
9800 kPa | 0.07726
